Laboratory results taken from US10597390B2, “Indoles for use in influenza virus infection” (Janssen Sciences Ireland UC, priority 2014, dated 2020).

What was measured:
in vitro = settings: dog, TOX MDCK CC50
[1] = system: influenza virus A/Taiwan/1/86 (H1N1); experiment: organism not typed; assay type: cell-based; settings: MDCK, 72 h, CPE in MDCK cells, three days post-virus exposure, ATPlite

Row | SMILES | CC50 at 3 days (in vitro) [nM] | melting point [°C] | IC50 [1] [nM]
1 | Cc1cc(C(=O)N[C@@H]2CCC[C@H](Nc3nc(-c4c[nH]c5c(F)cc(Cl)cc45)ncc3F)C2)on1 (racemic) [Compound 29] | 3400 | 246.7 | 17
2 | CCn1ccnc1C(=O)N[C@@H]1CCC[C@H](Nc2nc(-c3c[nH]c4c(F)cc(Cl)cc34)ncc2F)C1 [Compound 72] | 2800 | 156.4 | 3
3 | Cn1cnc(C(=O)N[C@@H]2CCC[C@H](Nc3nc(-c4c[nH]c5c(F)cc(C(F)(F)F)cc45)ncc3F)C2)c1 (racemic) [Compound 264] | 3800 | 266.5 | 19
4 | Cn1ncnc1C(=O)N[C@@H]1CCC[C@H](Nc2nc(-c3c[nH]c4c(F)cc(F)cc34)ncc2F)C1 [Compound 140] | > 25000 | 172.7 | 7
5 | Cn1nc(C(=O)N[C@@H]2CCC[C@H](Nc3nc(-c4c[nH]c5c(F)cc(F)cc45)ncc3F)C2)cc1N [Compound 149] | 10000 | 253.4 | 2
6 | C=CCC(C)(C)[C@@H](CC(=O)O)Nc1nc(-c2c[nH]c3c(F)cc(C)cc23)ncc1F [Compound 243] | 600 | < 280 | 46
7 | Cc1ncn(C)c1C(=O)N[C@@H]1CCC[C@H](Nc2nc(-c3c[nH]c4c(F)cc(F)cc34)ncc2F)C1 [Compound 113] | > 25000 | > 300 | 39
8 | Cc1cn(C)nc1C(=O)N[C@@H]1CCC[C@H](Nc2nc(-c3c[nH]c4c(F)cc(Cl)cc34)ncc2F)C1 [Compound 73] | > 25000 | 248.4 | 9
9 | Cc1cc(F)c2[nH]cc(-c3ncc(F)c(N[C@@H](CC(=O)O)C(C)(C)c4ccccn4)n3)c2c1 [Compound 239] | 15300 | 219 | 10
10 | Nc1n[nH]cc1C(=O)N[C@@H]1CCC[C@H](Nc2nc(-c3c[nH]c4c(F)cc(F)cc34)ncc2F)C1 [Compound 146] | 10700 | 169.7 | 1
11 | N#Cc1cc(F)c(N[C@@H]2CCC[C@H](NC(=O)[C@@H](O)c3ccccc3)C2)nc1-c1c[nH]c2c(F)cc(F)cc12 [Compound 214] | 2900 | 255 | 670
12 | Cc1nc(C(=O)N[C@@H]2CCC[C@H](Nc3nc(-c4c[nH]c5c(F)cc(F)cc45)ncc3F)C2)no1 [Compound 118] | > 25000 | 233 | 43
13 | CCn1nccc1C(=O)N[C@@H]1CCC[C@H](Nc2nc(-c3c[nH]c4c(F)cc(Cl)cc34)ncc2F)C1 [Compound 60] | > 25000 | > 300 | 2
14 | Nc1nc(C(=O)N[C@@H]2CCC[C@H](Nc3nc(-c4c[nH]c5c(F)cc(F)cc45)ncc3F)C2)cs1 [Compound 145] | 6800 | 178.1 | 2
15 | Nc1cccc(C(=O)N[C@@H]2CCC[C@H](Nc3nc(-c4c[nH]c5c(F)cc(F)cc45)ncc3F)C2)n1 [Compound 106] | 10300 | 190 | 5
16 | Cn1nccc1C(=O)N[C@@H]1CCC[C@H](Nc2nc(-c3c[nH]c4c(F)cc(F)cc34)ncc2F)C1 [Compound 122] | > 25000 | > 300 | 2
17 | Cc1ocnc1C(=O)N[C@@H]1CCC[C@H](Nc2nc(-c3c[nH]c4c(F)cc(Cl)cc34)ncc2F)C1 [Compound 48] | 5000 | 253.4 | 4
18 | C=CCC(C)(C)C(CC(=O)O)Nc1nc(-c2c[nH]c3c(F)cc(F)cc23)c(C#N)cc1F (stereo not drawn) [Compound 241, 3-((5-cyano-6-(5,7-difluoro-1H-indol-3-yl)-3-fluoropyridin-2-yl)amino)-4,4-dimethylhept-6-enoic Acid] | 50 | > 260 | 12
19 | CC(C)(c1nccs1)C(CC(=O)O)Nc1nc(-c2c[nH]c3c(F)cc(F)cc23)c(C#N)cc1F (stereo not drawn) [Compound 232] | 300 | 223.6 | 3

Row | SMILES | CC50 at 3 days (in vitro) [nM] | melting point [°C] | IC50 [1] [nM]
20 | Cn1cc(C(=O)N[C@@H]2CCC[C@H](Nc3nc(-c4c[nH]c5c(F)cc(F)cc45)ncc3F)C2)cn1 [Compound 120] | > 25000 | > 300 | 3
21 | Cn1cc(C(=O)N[C@@H]2CCC[C@H](Nc3nc(-c4c[nH]c5c(F)cc(Cl)cc45)ncc3F)C2)cn1 [Compound 52] | 4400 | 286.8 | 2
22 | Nc1cc(C(=O)N[C@@H]2CCC[C@H](Nc3nc(-c4c[nH]c5c(F)cc(F)cc45)ncc3F)C2)n[nH]1 [Compound 131] | 19400 | 245.7 | 4
23 | CN(C)C(=O)C(C)(C)C(CC(=O)O)Nc1nc(-c2c[nH]c3c(F)cc(F)cc23)ncc1F (stereo not drawn) [Compound 251] | > 25000 | 253 | 150
24 | O=C(N[C@@H]1CCC[C@H](Nc2nc(-c3c[nH]c4c(F)cc(Cl)cc34)ncc2F)C1)c1cc[nH]n1 [Compound 51] | 2800 | 263.3 | 1
25 | CN1CCC[C@@H]1C(=O)N[C@@H]1CCC[C@H](Nc2nc(-c3c[nH]c4c(F)cc(Cl)cc34)ncc2F)C1 [Compound 62] | 6900 | 196.5 | 730
26 | Cc1cc(F)c2[nH]cc(-c3ncc(F)c(N[C@H]4CCC[C@@H](NC(=O)c5ncsc5C)C4)n3)c2c1 (racemic) [Compound 193] | 3600 | 234 | 5
27 | Cc1cnc(C(=O)N[C@@H]2CCC[C@H](Nc3nc(-c4c[nH]c5c(F)cc(F)cc45)ncc3F)C2)n1C [Compound 144] | 7200 | 204.9 | 4
28 | CN(C)c1ccnc(C(=O)N[C@@H]2CCC[C@H](Nc3nc(-c4c[nH]c5c(F)cc(F)cc45)ncc3F)C2)c1 [Compound 121] | 15700 | 282.8 | 6
29 | O=C(N[C@@H]1CCC[C@H](Nc2nc(-c3c[nH]c4c(F)cc(F)cc34)ncc2F)C1)c1cc(Cl)ccn1 [Compound 99] | 10200 | 86 | 12
30 | Cc1cc(F)c2[nH]cc(-c3ncc(F)c(N[C@H](CC(=O)O)C(C)(C)C)n3)c2c1 [Compound 168] | 10300 | 132 | > 25000
31 | Nc1nccc(C(=O)N[C@@H]2CCC[C@H](Nc3nc(-c4c[nH]c5c(F)cc(Cl)cc45)ncc3F)C2)n1 [Compound 65] | > 25000 | 261.7 | 3
32 | COc1ccnc(C(=O)N[C@@H]2CCC[C@H](Nc3nc(-c4c[nH]c5c(F)cc(F)cc45)ncc3F)C2)c1 [Compound 105] | 5600 | 233.8 | 2
33 | CCn1nccc1C(=O)N[C@@H]1CCC[C@H](Nc2nc(-c3c[nH]c4c(F)cc(F)cc34)ncc2F)C1 [Compound 115] | > 25000 | 266.8 | 380
34 | O=C(N[C@@H]1CCC[C@H](Nc2nc(-c3c[nH]c4c(F)cc(F)cc34)ncc2F)C1)c1c[nH]nn1 [Compound 111] | 9000 | 265 | 0.6
35 | O=C(N[C@@H]1CCC[C@H](Nc2nc(-c3c[nH]c4c(F)cc(F)cc34)ncc2F)C1)c1csc(C(=O)O)n1 [Compound 155] | > 22800 | 260.8 | 3
36 | Cc1cc(F)c2[nH]cc(-c3ncc(F)c(N[C@@H](CC(=O)O)C(C)(C)c4ccn(C)n4)n3)c2c1 [Compound 235] | > 25000 | > 260 | 190
37 | CC(=O)NCc1cc(F)c(N[C@@H]2CCC[C@H](NC(=O)N3CCCC3)C2)nc1-c1c[nH]c2c(F)cc(F)cc12 [Compound 248] | > 25000 | < 260 | 50
38 | Cc1cc(F)c2[nH]cc(-c3nc(N[C@@H]4CCC[C@@H](NC(=O)c5nc(C)oc5C)C4)c(F)cc3C#N)c2c1 (racemic) [Compound 200] | > 25000 | > 250 | 160
